The target in experiment [1] is T1, human CRTH2 (Homo sapiens, UniProt Q9Y5Y4, V204A).
T1 sequence (Q9Y5Y4 1-395 V204A): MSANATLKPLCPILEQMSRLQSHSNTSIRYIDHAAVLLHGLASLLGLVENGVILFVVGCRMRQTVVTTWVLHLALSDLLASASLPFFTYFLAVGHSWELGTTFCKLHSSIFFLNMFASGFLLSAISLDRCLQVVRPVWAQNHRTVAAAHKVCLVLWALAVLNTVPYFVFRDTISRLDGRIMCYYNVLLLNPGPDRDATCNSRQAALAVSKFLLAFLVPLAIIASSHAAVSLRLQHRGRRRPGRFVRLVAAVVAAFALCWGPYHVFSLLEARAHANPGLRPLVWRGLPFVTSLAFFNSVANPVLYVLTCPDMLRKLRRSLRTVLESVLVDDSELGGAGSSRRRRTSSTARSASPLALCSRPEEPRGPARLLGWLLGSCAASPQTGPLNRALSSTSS
Put plainly: Functional antagonist BRET assay on HEK293 cells stably expressing human CRTH2-Rluc and GFP2-β-arr2. Set-up: expressed in transfected cells. Conditions: read-out: Antag. IC50. The experiment is classed as cell-based. The source says:
(§1) Generation/origin of the cDNA Constructs. The coding sequence of the human CRTH2 receptor (genbank accession no NM_004778) was amplified by PCR from a human hippocampus cDNA library and inserted into the pcDNA3.1(+) expression vector (invitrogen) via 5′ HindIII and 3′ EcoRI. To generate a CRTH2-Renilla luciferase (CRTH2-Rluc) fusion protein, the CRTH2 coding sequence without a STOP codon and Rluc were amplified, fused in frame by PCR and subcloned into the pcDNA3.1(+)Zeo expression vector (invitrogen). Human β-arrestin2 (β-arr2) N-terminally tagged with GFP^2 (βarr2-GFP^2) and Renilla luciferase were purchased from BioSignal Packard Inc, (Montreal, Canada). The sequence identity of the construct was verified by restriction endonuclease digests and sequencing in both directions on an ABI Prism (Applied Biosystems, Foster City, Calif.).
(§2) Cell Culture and Transfection. COS-7 cells were grown in Dulbecco's modified Eagle's medium (DMEM) 1885 supplemented with 10% fetal bovine serum, 100 units/ml penicillin, […] streptomycin, and kept at 37° C. in a 10% CO2 atmosphere. HEK293 cells were maintained in Minimum Essential medium (MEM) supplemented with 10% (v/v) heat inactivated fetal calf serum (HIFCS), 2 mM Glutamax™-I, 1% non essential amino acids (NEAA), 1% sodium pyruvate and 10 μg/ml gentamicin. For binding experiments, COS7 cells were transiently transfected with the CRTH2 receptor using a calcium phosphate-DNA coprecipitation method with the addition of chloroquine (as described by Holst et al., 2001↓). To perform the functional Bioluminescence Resonance Energy Transfer (BRET) assays, a HEK293 cell clone stably expressing βarr2-GFP^2 and CRTH2-Rluc was generated (CRTH2-HEK293 cells).
BRET assay. Functional BRET assays were performed on HEK293 cells stably expressing human CRTH2-Rluc and GFP^2-β-arr2. Prior to their use in the BRET assay cells were detached and re-suspended in D-PBS with 1000 mg/L L-Glucose at a density of 2×10^6 cells/mL. DeepBlueC™ was diluted to 50 μM in D-PBS with 1000 mg/L L-Glucose (light sensitive). 100 μL of cell suspension was transferred to wells in a 96-well microplate (white OptiPlate) and placed in the Mithras LB 940 instrument (BERTHOLD TECHNOLOGIES, Bad Wildbad, Germany). 12 μL/well agonist was then injected by injector 1 and 10 μL/well DeepBlueC™ was injected simultaneously by injector 2. Five seconds after the injections the light output from the well was measured sequentially at 400 nm and 515 nm, and the BRET signal (mBRET ratio) was calculated by the ratio of the fluorescence emitted by GFP^2-β-arr2 (515 nm) over the light emitted by the receptor-Rluc (400 nm). Antagonists were added before placing the microplates into the Mithras LB 940 and allowed to incubate for 15 minutes prior to the addition of agonist and DeepBlueC™. Compounds were dissolved in DMSO and the final DMSO concentration was kept constant at 1% in the assay.
(§3) Curve analysis was performed with the GraphPadPrism software 3.0 (Graphpad Prism Inc., San Diego, USA) and IC50 values were calculated as a measure of the antagonistic potencies.
(BRET reads energy transfer from a luciferase to a nearby fluorophore.)

Experiment [2] addresses T1, human CRTH2. In words: Receptor binding assay: [3H]PGD2 competition binding on whole COS-7 cells transiently transfected with CRTH2 (also stable HEK293 cells). Set-up: expressed in transfected cells; host or cells: COS-7 (transient, calcium phosphate).
Description: as §1, §2
Binding assay. 24 h after transfection COS-7 cells were seeded into 96 well plates at a density of 30.000 cells/well. Competition binding experiments on whole cells were then performed about 18-24 h later using 0.1 nM [^3H]PGD2 (NEN, 172 Ci/mmol) in a binding buffer consisting of HBSS (GIBCO) and 10 mM HEPES. Competing ligands were diluted in DMSO which was kept constant at 1% (v/v) of the final incubation volume. Total and nonspecific binding were determined in the absence and presence of 10 μM PGD2. Binding reactions were routinely conducted for 3 h at 4° C. and terminated by 2 washes (100 μl each) with ice cold binding buffer. Radioactivity was determined by liquid scintillation counting in a TOPCOUNTER (Packard) following over night incubation in Microscint 20. Stable HEK293 cells were seeded at a density of 30.000 cells/well 18-24 h prior to the binding assay which was performed essentially as described for COS7 cells above. Determinations were made in duplicates.
as §3

Setting [3] is: BRET, antagonist incubated 15 minutes prior to agonist.
Where [4] appears, read: competition with 0.1 nM [3H]PGD2, whole cells, 3 h at 4° C.
Setting [5] is: functional antagonist assay, Table 3.
The mark [6] stands for this setting: receptor binding assay, Table 3.

Molecules are shown by their SMILES. pIC50: −log10 of the molar value.

For `CCOc1ccccc1-n1cc(C(=O)c2cc(Br)ccc2OCC(=O)O)cn1` [D41, {4-Bromo-2-[1-(2-ethoxyphenyl)-1H-pyrazole-4-carbonyl]phenoxy}acetic acid], the pIC50 at human CRTH2 [1] (setting [3]) and at human CRTH2 [2] (setting [4]) was > 6.30 in each case.
On to `Cc1cc(Cl)ccc1-n1cc(C(=O)c2cc(Br)ccc2OCC(=O)O)cn1` [D58, {4-Bromo-2-[1-(4-chloro-2-methylphenyl)-1H-pyrazole-4-carbonyl]phenoxy}acetic acid], for which the pIC50 on human CRTH2 [1] (setting [3]) and at human CRTH2 [2] (setting [4]) was > 6.30 throughout.
For `O=C(O)COc1ccc(Br)cc1-c1nc(-c2cc(C(F)(F)F)cc(C(F)(F)F)c2)no1` [D109, {2-[3-(3,5-Bis-trifluoromethyl-phenyl)-[1,2,4]oxadiazol-5-yl]-4-bromo-phenoxy}-acetic acid], the pIC50 (in general, the negative decadic logarithm of the IC50, by convention in mol/L) was < 5.30 on human CRTH2 [1] (setting [5]) and > 6.30 on human CRTH2 [2] (setting [6]).
Turning to `O=C(O)COc1ccccc1C(=O)c1cnn(-c2ccccc2)c1` [D2, 2-(1-Phenyl-1H-pyrazole-4-carbonyl)phenoxyacetic acid], the values for the pIC50 on human CRTH2 [1] (setting [3]) and at human CRTH2 [2] (setting [4]) were 5.30 to 6.30 and > 6.30, respectively.
In the case of `CCCCc1ccc(OCC(=O)O)c(C(=O)c2cnn(-c3ccccc3)c2)c1` [D75, [4-Butyl-2-(1-phenyl-1H-pyrazole-4-carbonyl)phenoxy]acetic acid], the pIC50 on human CRTH2 [1] (setting [3]) is < 5.30; at human CRTH2 [2] (setting [4]), > 6.30.
For `CC(Oc1ccc(Br)cc1C(=O)c1cnn(-c2cc(Cl)ccc2Cl)c1)C(=O)O` (stereo not drawn) [D63, 2-{4-Bromo-2-[1-(2,5-dichlorophenyl)-1H-pyrazole-4-carbonyl]phenoxy}propionic acid], the pIC50 on human CRTH2 [1] (setting [3]) and at human CRTH2 [2] (setting [4]) was > 6.30 throughout.
Regarding `CCOc1ccc(OCC(=O)O)c(C(=O)c2cnn(-c3ccccc3)c2)c1` [D74, [4-Ethoxy-2-(1-phenyl-1H-pyrazole-4-carbonyl)phenoxy]acetic acid], the results for the pIC50 on human CRTH2 [1] (setting [3]) and at human CRTH2 [2] (setting [4]) were < 5.30 and 5.30 to 6.30, respectively.
Consider `CC(C)c1ccccc1-n1cc(C(=O)c2cc(Br)ccc2OCC(=O)O)cn1` [D73, {4-Bromo-2-[1-(2-isopropylphenyl)-1H-pyrazole-4-carbonyl]phenoxy}acetic acid], for which the pIC50 on human CRTH2 [1] (setting [3]) and on human CRTH2 [2] (setting [4]) was > 6.30 throughout.
Take `CC(Oc1ccc(Br)cc1C(=O)c1cnn(-c2ccc(Cl)c(Cl)c2)c1)C(=O)O` (stereo not drawn) [D64, 2-{4-Bromo-2-[1-(3,4-dichloro-phenyl)-1H-pyrazole-4-carbonyl]phenoxy}propionic acid]: the pIC50 on human CRTH2 [1] (setting [3]) and at human CRTH2 [2] (setting [4]) was > 6.30 in each case.
`CCc1cccc(CC)c1-n1cc(C(=O)c2cc(Br)ccc2OCC(=O)O)cn1` [D70, {4-Bromo-2-[1-(2,6-diethyl-phenyl)-1H-pyrazole-4-carbonyl]phenoxy}acetic acid]: the pIC50 on human CRTH2 [1] (setting [3]) and at human CRTH2 [2] (setting [4]) was > 6.30 in each case.
Regarding `CCc1ccccc1-n1cc(C(=O)c2cc(Br)ccc2OCC(=O)O)cn1` [D18, 4-Bromo-2-[1-(2-ethylphenyl)-1H-pyrazole-4-carbonyl]phenoxyacetic acid], the pIC50 at human CRTH2 [1] (setting [3]) and at human CRTH2 [2] (setting [4]) was > 6.30 in each case.
With `CSc1ccccc1-n1cc(C(=O)c2cc(Br)ccc2OC(C)C(=O)O)cn1` (stereo not drawn) [D49, 2-{4-Bromo-2-[1-(2-methylthio)-1H-pyrazole-4-carbonyl]phenoxy}propionic acid], the pIC50 at human CRTH2 [1] (setting [3]) and at human CRTH2 [2] (setting [4]) was > 6.30 each time.
For the molecule `O=C(O)COc1ccc(Br)cc1-c1nc(-c2ccccc2)co1` [D96, [4-Bromo-2-(4-phenyl-oxazol-2-yl)-phenoxy]acetic acid], the figures for the pIC50 at human CRTH2 [1] (setting [3]) and on human CRTH2 [2] (setting [4]) were 5.30 to 6.30 and > 6.30, respectively.
As for `CC(C)c1ccc(OCC(=O)O)c(C(=O)c2cnn(-c3ccccc3Cl)c2)c1` [D31, 2-[1-(2-Chlorophenyl)-1H-pyrazole-4-carbonyl]-4-isopropylphenoxyacetic acid], the pIC50 on human CRTH2 [1] (setting [3]) and at human CRTH2 [2] (setting [4]) was > 6.30 throughout.
As for `O=C(O)COc1ccc(Br)cc1-c1nc(Cc2cc(F)cc(F)c2)no1` [D117, {4-Bromo-2-[3-(3,5-difluoro-benzyl)-[1,2,4]oxadiazol-5-yl]-phenoxy}-acetic acid], the pIC50 on human CRTH2 [1] (setting [5]) and on human CRTH2 [2] (setting [6]) was > 6.30 throughout.
